Test [1] relates to HeLa. Kind of test: Ratio of IC50 of oncolytic and its modulator against Hela T5 cells at 2.5 uM dose of LY-329146. It counts as functional, Homo sapiens.
For test [2], the system named is HeLa. Kind of test: Cytotoxicity tested against Hela C1 cells at 1 uM dose of LY-329146. It counts as functional, cell-based. To be noted: Homo sapiens.
Test [3] deals with HeLa. Kind of test: Cytotoxicity tested against Hela C1 cells at 2.5 uM dose of LY-329146. It counts as functional, cell-based. To be noted: Homo sapiens.
The test system of test [4] is HeLa. In words: Ratio of IC50 of oncolytic and its modulator against Hela C1 cells at 1 uM dose of LY-329146. The format is functional, Homo sapiens.
The test system of test [5] is HeLa. Kind of test: Ratio of IC50 of oncolytic and its modulator against Hela C1 cells at 2.5 uM dose of LY-329146. The format is functional, Homo sapiens.
The test system of test [6] is HeLa. In words: Cytotoxicity tested against Hela T5 cells at 1 uM dose of LY-329146. It counts as functional, cell-based. To be noted: Homo sapiens.
Test [7] concerns HeLa. In words: Cytotoxicity tested against Hela T5 cells at 2.5 uM dose of LY-329146. It counts as functional, cell-based. The following applies: Homo sapiens.
Test [8] has as its system HeLa. In words: Ratio of IC50 of oncolytic and its modulator against Hela T5 cells at 1 uM dose of LY-329146. It counts as functional, Homo sapiens.
The subject of test [9] is HL-60. In words: Cytotoxicity tested against HL60/Vinc cell line. It counts as functional, cell-based. To be noted: Homo sapiens.
For test [10], the system named is HL-60. Kind of test: Cytotoxicity against drug resistant HL60/ADR cell line. To be noted: Homo sapiens. It counts as functional, cell-based.
Test [11] relates to HL-60. In words: Cytotoxicity tested against drug sensitive HL60/S cell line. The format is functional, cell-based. To be noted: Homo sapiens.
Test [12] has as its system HL-60. In words: Ability to inhibit 50 nM Leukotriene C4 (LTC4) uptake into HL60/ADR membrane vesicles. It counts as functional, cell-based. The following applies: Homo sapiens.
For test [13], the system named is HL-60. In words: Cytotoxicity against HL60/Vinc cell line at 0.5 uM dose of LY-329146. It counts as functional, cell-based. The following applies: Homo sapiens.
In test [14] the test system is HL-60. In words: Cytotoxicity tested against HL60/Vinc cell line at 1 uM dose of LY-329146 at 1 uM. It counts as functional, cell-based. The following applies: Homo sapiens.
Test [15] has as its system HL-60. Kind of test: Cytotoxicity tested against HL60/Vinc cell line at 5 uM dose of LY-329146. The following applies: Homo sapiens. The format is functional, cell-based.
Test [16] concerns HL-60. In words: Cytotoxicity against drug resistant HL60/ADR cell line at 1 uM dose of LY-329146. The format is functional, cell-based. To be noted: Homo sapiens.
Test [17] deals with HL-60. In words: Cytotoxicity tested against drug resistant HL60/ADR cell line at 0.5 uM dose of LY-329146. It counts as functional, cell-based. To be noted: Homo sapiens.
The test system of test [18] is HL-60. In words: Cytotoxicity tested against drug resistant HL60/ADR cell line at 5 uM dose of LY-329146. It counts as functional, cell-based. To be noted: Homo sapiens.
The subject of test [19] is HL-60. In words: Cytotoxicity against drug sensitive HL60/S cell line at 0.5 uM dose of LY-329146. To be noted: Homo sapiens. The format is functional, cell-based.
In test [20] the test system is HL-60. In words: Cytotoxicity tested against drug sensitive HL60/S cell line at 1 uM dose of LY-329146. It counts as functional, cell-based. To be noted: Homo sapiens.
In test [21] the test system is HL-60. Kind of test: Cytotoxicity tested against drug sensitive HL60/S cell line at 5 uM dose of LY-329146. The format is functional, cell-based. The following applies: Homo sapiens.
The subject of test [22] is HeLa. Kind of test: Cytotoxicity tested against Hela C1 cells. It counts as functional, cell-based. The following applies: Homo sapiens.
The test system of test [23] is HeLa. Kind of test: Cytotoxicity tested against Hela T5 cells. It counts as functional, cell-based. The following applies: Homo sapiens.
Test [24] relates to HL-60. Kind of test: Cytotoxicity tested against drug resistant HL60/ADR cell line at 1 uM dose of LY-117018. The following applies: Homo sapiens. The format is functional, cell-based.
Test [25] deals with HL-60. In words: Cytotoxicity tested against drug resistant HL60/ADR cell line at 5 uM dose of LY-117018. It counts as functional, cell-based. The following applies: Homo sapiens.
The test system of test [26] is HL-60. In words: Ability to enhance the cytotoxicity of doxorubicin against […] HL60/ADR cell line expressed as reversal factor (RF) at 1 uM. The format is functional, Homo sapiens.
For test [27], the system named is HL-60. In words: Ability to enhance the cytotoxicity of doxorubicin against […] HL60/ADR cell line expressed as reversal factor (RF) at 5 uM. The format is functional, Homo sapiens.

This note sets out measurements from ChEMBL document CHEMBL1131902, “Reversal of resistance in multidrug resistance protein (MRP1)-overexpressing cells by LY329146” (Bioorg Med Chem Lett, 1999).

Molecules are shown by their SMILES. Values after ≈ are worked out from the molar mass of the structure shown.

On to `CC[C@]1(O)CC2CN(CCc3c([nH]c4ccccc34)[C@@](C(=O)OC)(c3cc4c(cc3OC)N(C=O)C3C45CCN4CC=C[C@@](CC)(C(OC(C)=O)[C@]3(O)C(=O)OC)[C@H]45)C2)C1.CS(=O)(=O)N(c1ccc(-c2sc3cc(O)ccc3c2C(=O)c2ccc(OCCN3CCCCC3)cc2)cc1)S(C)(=O)=O` (some centres not stated), for which the RF is given as 3.9 with HeLa [1], 2 with HeLa [4], 2.8 in the test with HeLa [5] and 1.6 in the test with HeLa [8]. In addition, the IC50 worked out at 0.007 µg/mL in the test on HeLa [2], 0.005 µg/mL with HeLa [3], 0.031 µg/mL with HeLa [6] and 0.013 µg/mL in the test on HeLa [7].
With `COc1cccc2c1C(=O)c1c(O)c3c(c(O)c1C2=O)C[C@@](O)(C(=O)CO)C[C@@H]3O[C@H]1C[C@H](N)[C@H](O)[C@H](C)O1` [DOXORUBICIN], the values for the IC50 in the test on HL-60 [9], in the test on HL-60 [10] and in the test on HL-60 [11] were 1.88 µg/mL (≈ 3.46 µM), 2.97 µg/mL (≈ 5.46 µM) and 0.028 µg/mL (≈ 0.0515 µM), respectively.
Compound `CS(=O)(=O)N(c1ccc(-c2sc3cc(O)ccc3c2C(=O)c2ccc(OCCN3CCCCC3)cc2)cc1)S(C)(=O)=O` came in with a concentration for half-maximal inhibition (IC50) in the test with HL-60 [12] of 0.8 µg/mL (≈ 1.27 µM).
`COc1cccc2c1C(=O)c1c(O)c3c(c(O)c1C2=O)C[C@@](O)(C(=O)CO)C[C@@H]3O[C@H]1C[C@H](N)[C@H](O)[C@H](C)O1.CS(=O)(=O)N(c1ccc(-c2sc3cc(O)ccc3c2C(=O)c2ccc(OCCN3CCCCC3)cc2)cc1)S(C)(=O)=O`: the IC50 in the test with HL-60 [13] was found to be 1.44 µg/mL; in the test with HL-60 [14] it was 0.444 µg/mL; in the test with HL-60 [15] it was 0.027 µg/mL; in the test on HL-60 [16], 1.11 µg/mL; in the test with HL-60 [17] it was 1.71 µg/mL; in the test with HL-60 [18] it was 0.224 µg/mL. Also, the concentration for half-maximal inhibition (IC50) came out at 0.023 µg/mL in the test on HL-60 [19]; 0.018 µg/mL with HL-60 [20]; 0.011 µg/mL with HL-60 [21]; 0.315 µg/mL in the test on HeLa [2]; 0.213 µg/mL in the test with HeLa [3]; 1.06 µg/mL in the test with HeLa [6]. The same compound registered a 50% inhibitory concentration (IC50) in the test with HeLa [7] of 0.241 µg/mL.
Take `CN(C)C(=O)CCSC(SCCC(=O)O)c1cccc(/C=C/c2ccc3ccc(Cl)cc3n2)c1` (configuration not stated) [MK-571]: the IC50 with HL-60 [12] came out at 0.5 µg/mL (≈ 0.971 µM).
Regarding `CC[C@]1(O)C[C@H]2CN(CCc3c([nH]c4ccccc34)[C@@](C(=O)OC)(c3cc4c(cc3OC)N(C=O)[C@H]3[C@@](O)(C(=O)OC)[C@H](OC(C)=O)[C@]5(CC)C=CCN6CC[C@]43[C@@H]65)C2)C1` [VINCRISTINE], the concentration for half-maximal inhibition (IC50) in the test on HeLa [22] was found to be 0.014 µg/mL (≈ 0.017 µM); in the test with HeLa [23] it was 0.051 µg/mL (≈ 0.0618 µM).
As for `COc1cccc2c1C(=O)c1c(O)c3c(c(O)c1C2=O)C[C@@](O)(C(=O)CO)C[C@@H]3O[C@H]1C[C@H](N)[C@H](O)[C@H](C)O1.O=C(c1ccc(OCCN2CCCC2)cc1)c1c(-c2ccc(O)cc2)sc2cc(O)ccc12`, the half-maximal inhibitory concentration (IC50) in the test on HL-60 [24] was found to be 3.2 µg/mL; in the test with HL-60 [25], 1 µg/mL. For the same compound, the RF with HL-60 [26] stood at 1; with HL-60 [27] it was 3.

Usually IC50 stands for the concentration at which inhibition is half-maximal.
